Assay [1] deals with Clostridium perfringens FERM BP-4584 (7544S) cell growth-stimulating protein having proteinase activity (MW about 420,000). It is filed as biochemical.
The test system is the same in assay [2]. Type of assay: biochemical. The source holds these as a separate data set.
Where [3] appears, read: inhibitor conc. 1.0 mM, substrate Suc-Ala-Ala-Pro-Phe-MCA.
Setting [4] is: inhibitor conc. 0.01 mM, substrate Suc-Ala-Ala-Pro-Phe-MCA.

Where two headings read alike, the source gives them in different places. *1 amine or outer side, *2 acyl side, *3 side chain or, on linkers, in order; H or OH if unused. Where a SMILES comes first, the peptide text is derived from it. [ ]: non-standard residue; d: D form. The star is where a group is joined. Sta = CC(C)C[C@H](N)[C@@H](O)CC(=O)O; AMC = Cc1cc(=O)oc2cc(N*)ccc12; Suc = O=C(CCC(=O)[*:2])[*:1]; Isovaleryl = CC(C)CC(=O)*

With `c1cnc2c(c1)ccc1cccnc12` [o-Phenanthroline], in assay [1] (setting [3]), the Residual activity worked out at 85%. Consider Chymostatin, for which the Residual activity in assay [1] (setting [4]) is given as 62%.

For orientation: Km means the concentration of substrate that gives half-maximal velocity. Turning to `Cc1cc(=O)oc2cc(NC(=O)[C@H](Cc3ccccc3)NC(=O)[C@@H]3CCCN3C(=O)[C@H](C)NC(=O)[C@H](C)NC(=O)CCC(=O)O)ccc12` [Suc--Ala--Ala--Pro--Phe--MCA, succinyl-alanyl-alanyl-prolyl-phenylalanine-4-methyl-coumaryl-7-amide] (Suc-AAPF-{AMC}), the Michaelis constant (Km) in assay [2] came out at 4.2 mM. Besides, in assay [2] (substrate Suc-Ala-Ala-Pro-Phe-MCA, optimum pH 6.2-7.0), the Vmax amounted to 230 μ mol/min/mg. Take `CC(C)CC(=O)N[C@H](C(=O)N[C@H](C(=O)N[C@@H](CC(C)C)[C@@H](O)CC(=O)N[C@@H](C)C(=O)N[C@@H](CC(C)C)[C@@H](O)CC(=O)O)C(C)C)C(C)C` [Pepstatin A] (Isovaleryl-VV[Sta]A[Sta]-OH): in assay [1] (setting [4]), the Residual activity came to 103%. Regarding `O=C(O)CN(CCN(CC(=O)O)CC(=O)O)CC(=O)O` [Ethylenediamine tetraacetic acid], the Residual activity in assay [1] (setting [3]) turned out to be 34%.

As for `CC(C)C[C@H](NC(=O)N[C@H](C(=O)N[C@@H](CCC(N)=O)C(=O)N[C@@H](C)C=O)[C@@H]1CCNC(=N)N1)C(=O)O` [Elastatinal], the Residual activity in assay [1] (setting [4]) turned out to be 98%. With Toluene sulfonylfluoride, in assay [1], the Residual activity is on record as 1%. As for `O=C(O)CI` [Iodoacetic acid], the Residual activity in assay [1] (inhibitor conc. 0.1 mM, substrate Suc-Ala-Ala-Pro-Phe-MCA) came out at 100%.
